Experiments:
[1] = test system: HBV; assay: In vitro anti-HBV activity in HepG2.2.15 cell line (intracellular HBV DNA by qPCR at 1 μM); format: cell-based; details: Hepatitis B virus, 144 h; HepG2.2.15 cells, 1 μM compound, 6 days, intracellular HBV DNA as percentage compared to vehicle control (0.5% DMSO)
Method in brief: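 HepG2.2.15 cells given compound at 1 μM (0.5% DMSO final) for 3 days, then fresh compound-containing medium for 3 more days. After 6 days intracellular HBV DNA measured by qPCR. Expressed as % of 0.5% DMSO vehicle control and binned into letter ranges.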

[2] = target: T1, HBV core protein (Cp149) (Hepatitis B virus genotype D subtype ayw, UniProt P03146); assay: HBV capsid assembly by size exclusion chromatography (SEC); format: biochemical; details: 50 μM compound, 15 μM Cp149, 16 hours at 21° C.
T1 construct: HBV core C-terminally truncated protein (HBV Cp149); made in house
T1 sequence (P03146 1-149): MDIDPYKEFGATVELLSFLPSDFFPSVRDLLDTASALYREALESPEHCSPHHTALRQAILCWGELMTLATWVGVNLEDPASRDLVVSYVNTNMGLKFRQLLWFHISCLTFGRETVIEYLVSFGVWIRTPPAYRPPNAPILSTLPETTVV

[3] = Cytotoxicity (MTT) in HepG2.2.15 cells; format: cell-based; details: human, 6 days treatment, read-out: HepG2.1.15 cytotoxicity (CC50)
Description: HepG2.2.15 cells were seeded onto 96-well culture plate and allowed to adhere for 24 hours. The cells were treated with various concentrations of the compounds for 6 days. After treatment, the culture media were discarded and further incubated with serum-free media containing […] of 3-(4,5-dimethylthiazol-2-yl)-2,5-diphenyl tetrazolium bromide (MTT) for 2 hour. The resulting formazan crystals were completely dissolved in dimethyl sulfoxide (DMSO), and then measured absorbance at 570 nm using microplate reader. The concentrations of compounds producing 50% cell death (CC50) were determined from a fitting of concentration-response curve (% cell viability versus concentration) to a four-parameter equation.

[4] = test system: HBV; assay: Effect on intrahepatic HBV DNA levels in HepG2.2.15 cells (EC50); format: cell-based; details: Hepatitis B virus, 144 h, 6 days, intrahepatic HBV DNA by qPCR, read-out: Anti-HBV DNA (EC50)
Description: HepG2.2.15 cells were treated with compounds, at various concentrations in 10% FCS containing medium, at 37° C. for three days. After that the medium was removed and fresh medium containing the compound was added to the cells for another 3 days. After 6 days of treatment, intrahepatic HBV DNA from cell lysates were isolated. Then qPCR reaction of DNA was performed to measure total HBV DNA levels using specific primer set. The fifty-percent effective concentrations (EC50) for HBV DNA inhibition, relative to no drug controls, was determined using nonlinear fitting curve model. EC50 ranges for HBV DNA inhibition were as follows: A>0.3 μM, B=0.05-0.3 μM, C<0.05 μM (Table B).

Compound | activity at 1 µM [1] [%] | Size of induced capsids based on SEC retention times [2] | CC50 at 6 days [3] [nM] | EC50 [4] [nM]
O=C(Nc1cc(F)c(F)c(F)c1)[C@H]1CCN(C(=O)c2ccc(Cl)[nH]2)C1 [Example 52, (S)-1-(5-chloro-1H-pyrrole-2-carbonyl)-N-(3,4,5-trifluorophenyl)pyrrolidine-3-carboxamide] | 70 to 80 | induced capsids similar in size to NVR 3-778 | – | –
N#Cc1c(C(=O)N2CC[C@H](C(=O)Nc3cc(F)c(F)c(F)c3)C2)[nH]c2ccccc12 [Example 45, (S)-1-(3-cyano-1H-indole-2-carbonyl)-N-(3,4,5-trifluorophenyl)pyrrolidine-3-carboxamide] | 60 to 70 | induced capsids similar in size to NVR 3-778 | – | –
Cc1cnnc(C)c1-c1ccc(C(=O)N2CC[C@H](C(=O)Nc3ccc(F)c(C#N)c3)[C@@H]2C)[nH]1 [Example 116, (2S,3S)—N-(3-cyano-4-fluorophenyl)-1-(5-(3,5-dimethylpyridazin-4-yl)-1H-pyrrole-2-carbonyl)-2-methylpyrrolidine-3-carboxamide] | 45 to 60 | – | > 25000 | 50 to 300
Cc1c(-c2ccc(C(=O)N3CC[C@H](C(=O)Nc4cc(F)c(F)c(F)c4)C3)[nH]2)cnc2[nH]ccc12 [Example 129, (S)-1-(5-(4-methyl-1H-pyrrolo[2,3-b]pyridin-5-yl)-1H-pyrrole-2-carbonyl)-N-(3,4,5-trifluorophenyl)pyrrolidine-3-carboxamide] | < 45 | induced capsids similar in size to NVR 3-778 | – | –
O=C(Nc1ccc(F)c(Cl)c1)[C@H]1CCN(C(=O)c2[nH]c3ccccc3c2Cl)C1 [Example 41, (S)-1-(3-chloro-1H-indole-2-carbonyl)-N-(3-chloro-4-fluoro-phenyl)pyrrolidine-3-carboxamide] | < 45 | – | – | 50 to 300
Cc1ncnc(C)c1-c1ccc(C(=O)N2CC[C@H](C(=O)Nc3cc(F)c(F)c(Cl)c3)C2)[nH]1 [Example 100, (S)—N-(3-chloro-4,5-difluorophenyl)-1-(5-(4,6-dimethylpyrimidin-5-yl)-1H-pyrrole-2-carbonyl)pyrrolidine-3-carboxamide] | < 45 | – | 10000 to 25000 | < 50
Cc1cc[nH]c(=O)c1-c1ccc(C(=O)N2CC[C@H](C(=O)Nc3ccc(F)c(Cl)c3)[C@@H]2C)[nH]1 [Example 119, (2S,3S)—N-(3-chloro-4-fluorophenyl)-2-methyl-1-(5-(4-methyl-2-oxo-1,2-dihydropyridin-3-yl)-1H-pyrrole-2-carbonyl)pyrrolidine-3-carboxamide] | < 45 | – | > 25000 | 50 to 300
C[C@H]1[C@@H](C(=O)Nc2ccc(F)c(C#N)c2)CCN1C(=O)c1[nH]c2cc(-c3cn[nH]c3)ccc2c1Cl [Example 141, (2S,3S)-1-(3-chloro-6-(1H-pyrazol-4-yl)-1H-indole-2-carbonyl)-N-(3-cyano-4-fluorophenyl)-2-methylpyrrolidine-3-carboxamide] | < 45 | capsid retention times between BAY 41-4109 and NVR 3-778 | – | –
Cc1n[nH]c(C)c1-c1ccc(C(=O)N2CC[C@H](C(=O)Nc3ccc(F)c(Cl)c3)[C@@H]2C)[nH]1 [Example 105, (2S,3S)—N-(3-chloro-4-fluorophenyl)-1-(5-(3,5-dimethyl-1H-pyrazol-4-yl)-1H-pyrrole-2-carbonyl)-2-methylpyrrolidine-3-carboxamide] | < 45 | – | < 10000 | < 50
Cc1ncc(-c2ccc(C(=O)N3CC[C@H](C(=O)Nc4ccc(F)c(Cl)c4)[C@@H]3C)[nH]2)cn1 [Example 127, (2S,3S)—N-(3-chloro-4-fluorophenyl)-2-methyl-1-(5-(2-methylpyrimidin-5-yl)-1H-pyrrole-2-carbonyl)pyrrolidine-3-carboxamide] | < 45 | – | – | 50 to 300
C[C@H]1[C@@H](C(=O)Nc2ccc(F)c(C#N)c2)CCN1C(=O)c1ccc(Cl)[nH]1 [Example 65, (2S,3S)-1-(5-chloro-1H-pyrrole-2-carbonyl)-N-(3-cyano-4-fluorophenyl)-2-methylpyrrolidine-3-carboxamide] | < 45 | – | > 25000 | 50 to 300
Cc1cc(NC(=O)[C@H]2CCN(C(=O)c3ccc(-c4c(C)cnnc4C)[nH]3)C2)ccc1F [Example 117, (S)-1-(5-(3,5-dimethylpyridazin-4-yl)-1H-pyrrole-2-carbonyl)-N-(4-fluoro-3-methylphenyl)pyrrolidine-3carboxamide] | 45 to 60 | – | > 25000 | < 50
C[C@H]1[C@@H](C(=O)Nc2cc(F)c(F)c(F)c2)CCN1C(=O)c1nc2cccnc2[nH]1 [Example 70, (2S,3S)-1-(3H-imidazo[4,5-b]pyridine-2-carbonyl)-2-methyl-N-(3,4,5-trifluorophenyl)pyrrolidine-3-carboxamide] | 45 to 60 | – | > 25000 | 50 to 300
Cc1ncnc(C)c1-c1ccc2cc(C(=O)N3CC[C@H](C(=O)Nc4cc(F)c(F)c(F)c4)C3)[nH]c2c1 [Example 132, (S)-1-(6-(4,6-dimethylpyrimidin-5-yl)-1H-indole-2-carbonyl)-N-(3,4,5-trifluorophenyl) pyrrolidine-3-carboxamide] | 45 to 60 | induced capsids similar in size to NVR 3-778 | – | –
Cc1nccnc1-c1ccc2c(Cl)c(C(=O)N3CC[C@H](C(=O)Nc4ccc(F)c(C#N)c4)C3)[nH]c2c1 [Example 139, (S)-1-(3-chloro-6-(3-methylpyrazin-2-yl)-1H-indole-2-carbonyl)-N-(3-cyano-4-fluorophenyl) pyrrolidine-3-carboxamide] | < 45 | capsid retention times between BAY 41-4109 and NVR 3-778 | – | –
Cc1ncnc(C)c1-c1ccc2c(Cl)c(C(=O)N3CC[C@H](C(=O)Nc4cc(F)c(F)c(F)c4)C3)[nH]c2c1 [Example 133, (S)-1-(3-chloro-6-(4,6-dimethylpyrimidin-5-yl)-1H-indole-2-carbonyl)-N-(3,4,5-trifluorophenyl)pyrrolidine-3-carboxamide] | 45 to 60 | capsid retention times between BAY 41-4109 and NVR 3-778 | – | –
O=C(Nc1cc(F)c(F)c(F)c1)[C@H]1CCN(C(=O)c2cc3cc(F)c(F)cc3[nH]2)C1 [Example 49, (S)-1-(5,6-difluoro-1H-indole-2-carbonyl)-N-(3,4,5-trifluorophenyl)pyrrolidine-3-carboxamide] | > 90 | – | – | –
O=C(Nc1cc(F)c(F)c(F)c1)[C@H]1CCN(C(=O)c2ccc(-c3ccncc3)[nH]2)C1 [Example 77, (S)-1-(5-(pyridin-4-yl)-1H-pyrrole-2-carbonyl)-N-(3,4,5-trifluorophenyl)pyrrolidine-3-carboxamide] | < 45 | – | – | –
C[C@H]1[C@@H](C(=O)Nc2cc(F)c(F)c(F)c2)CCN1C(=O)c1[nH]c2ccccc2c1CO [Example 72, (2S,3S)-1-(3-(hydroxymethyl)-1H-indole-2-carbonyl)-2-methyl-N-(3,4,5-trifluorophenyl)pyrrolidine-3-carboxamide] | 60 to 70 | – | – | –
Cc1noc(C)c1-c1ccc(C(=O)N2CC[C@H](C(=O)Nc3cc(F)c(F)c(F)c3)C2)[nH]1 [Example 109, (S)-1-(5-(3,5-dimethylisoxazol-4-yl)-1H-pyrrole-2-carbonyl)-N-(3,4,5-trifluorophenyl) pyrrolidine-3-carboxamide] | 60 to 70 | – | – | –
O=C(NCc1cnc(Cl)s1)[C@H]1CCN(C(=O)c2[nH]c3ccccc3c2Cl)C1 [Example 71, (S)-1-(3-chloro-1H-indole-2-carbonyl)-N-((2-chlorothiazol-5-yl)methyl)pyrrolidine-3-carboxamide] | 70 to 80 | – | – | –
Cc1ncnc(C)c1-c1ccc2c(Cl)c(C(=O)N3CC[C@H](C(=O)Nc4ccc(F)c(C#N)c4)C3)[nH]c2c1 [Example 135, (S)-1-(3-chloro-6-(4,6-dimethylpyrimidin-5-yl)-1H-indole-2-carbonyl)-N-(3-cyano-4-fluorophenyl)pyrrolidine-3-carboxamide] | < 45 | capsid retention times between BAY 41-4109 and NVR 3-778 | – | 50 to 300
COc1cc2cc(C(=O)N3CC[C@H](C(=O)Nc4cc(F)c(F)c(F)c4)C3)[nH]c2cn1 [Example 12, (S)-1-(5-methoxy-1H-pyrrolo[2,3-c]pyridine-2-carbonyl)-N-(3,4,5-trifluorophenyl)pyrrolidine-3-carboxamide] | 80 to 90 | – | – | –
